From paper PMC10512030, “Prolidase-proline oxidase axis is engaged in apoptosis induction by birch buds flavonol santin in endometrial adenocarcinoma cell line” (Frontiers in Molecular Biosciences, 2023)
Read-outs that look alike come from different tables or passages of the source.

Tested on: normal fibroblasts (dermal fibroblasts CCD25Sk)
Experiment: Cell viability neutral red uptake assay, fibroblasts
Format: cell-based, human
Conditions: Homo sapiens, Fibroblast, read-out: IC50 values ± SD in neutral red uptake assay

COc1ccc(-c2oc3cc(O)c(OC)c(O)c3c(=O)c2OC)cc1 [santin, 5,7-dihydroxy-3,6,4′-trimethoxyflavone]
IC50 (24 h): > 50 µM
IC50 (48 h): > 50 µM
